Reference: ChEMBL document CHEMBL1649448, “Atorvastatin is a promising partner for antimalarial drugs in treatment of Plasmodium falciparum malaria” (Antimicrob Agents Chemother, 2009)

These compounds were tested on Plasmodium falciparum (assay: Antimalarial activity against Plasmodium falciparum 3D7 assessed as incorporation of [3H]hypoxanthine after 48 hrs by scintillation counter).
Format: functional, organism-based

Row | SMILES | IC50 [nM]
1 | O=C1C(O)=C([C@H]2CC[C@H](c3ccc(Cl)cc3)CC2)C(=O)c2ccccc21 [ATOVAQUONE] | 2.4
2 | CCCCN(CCCC)CC(O)c1cc(Cl)cc2c1-c1ccc(Cl)cc1/C2=C/c1ccc(Cl)cc1 (centres undefined) [LUMEFANTRINE] | 8

Each compound was assayed on Plasmodium falciparum (assay: Antimalarial activity against Plasmodium falciparum W2 assessed as incorporation of [3H]hypoxanthine after 48 hrs by scintillation counter).
Format: functional, organism-based

Row | SMILES | IC50 [nM]
3 | O=C1C(O)=C([C@H]2CC[C@H](c3ccc(Cl)cc3)CC2)C(=O)c2ccccc21 [ATOVAQUONE] | 2.4
4 | CCCCN(CCCC)CC(O)c1cc(Cl)cc2c1-c1ccc(Cl)cc1/C2=C/c1ccc(Cl)cc1 (centres undefined) [LUMEFANTRINE] | 8

These compounds were tested on Plasmodium falciparum (assay: Antimalarial activity against Plasmodium falciparum D6 assessed as incorporation of [3H]hypoxanthine after 48 hrs by scintillation counter).
Format: functional, organism-based

Row | SMILES | IC50 [nM]
5 | O=C1C(O)=C([C@H]2CC[C@H](c3ccc(Cl)cc3)CC2)C(=O)c2ccccc21 [ATOVAQUONE] | 2.4
6 | CCCCN(CCCC)CC(O)c1cc(Cl)cc2c1-c1ccc(Cl)cc1/C2=C/c1ccc(Cl)cc1 (centres undefined) [LUMEFANTRINE] | 8

What follows are compounds tested on Plasmodium falciparum (assay: Antimalarial activity against Plasmodium falciparum FCM29 assessed as incorporation of [3H]hypoxanthine after 48 hrs by scintillation counter).
Format: functional, organism-based

Row | SMILES | IC50 [nM]
7 | O=C1C(O)=C([C@H]2CC[C@H](c3ccc(Cl)cc3)CC2)C(=O)c2ccccc21 [ATOVAQUONE] | 2.4
8 | CCCCN(CCCC)CC(O)c1cc(Cl)cc2c1-c1ccc(Cl)cc1/C2=C/c1ccc(Cl)cc1 (centres undefined) [LUMEFANTRINE] | 8

Each compound was assayed on Plasmodium falciparum (assay: Antimalarial activity against Plasmodium falciparum FCR3 assessed as incorporation of [3H]hypoxanthine after 48 hrs by scintillation counter).
Format: functional, organism-based

Row | SMILES | IC50 [nM]
9 | O=C1C(O)=C([C@H]2CC[C@H](c3ccc(Cl)cc3)CC2)C(=O)c2ccccc21 [ATOVAQUONE] | 2.4
10 | CCCCN(CCCC)CC(O)c1cc(Cl)cc2c1-c1ccc(Cl)cc1/C2=C/c1ccc(Cl)cc1 (centres undefined) [LUMEFANTRINE] | 8

The compounds below were run on Plasmodium falciparum (assay: Antimalarial activity against Plasmodium falciparum PA assessed as incorporation of [3H]hypoxanthine after 48 hrs by scintillation counter).
Format: functional, organism-based

Row | SMILES | IC50 [nM]
11 | O=C1C(O)=C([C@H]2CC[C@H](c3ccc(Cl)cc3)CC2)C(=O)c2ccccc21 [ATOVAQUONE] | 2.4
12 | CCCCN(CCCC)CC(O)c1cc(Cl)cc2c1-c1ccc(Cl)cc1/C2=C/c1ccc(Cl)cc1 (centres undefined) [LUMEFANTRINE] | 8

The compounds below were run on Plasmodium falciparum (assay: Antimalarial activity against Plasmodium falciparum HB3 assessed as incorporation of [3H]hypoxanthine after 48 hrs by scintillation counter).
Format: functional, organism-based

Row | SMILES | IC50 [nM]
13 | O=C1C(O)=C([C@H]2CC[C@H](c3ccc(Cl)cc3)CC2)C(=O)c2ccccc21 [ATOVAQUONE] | 2.4
14 | CCCCN(CCCC)CC(O)c1cc(Cl)cc2c1-c1ccc(Cl)cc1/C2=C/c1ccc(Cl)cc1 (centres undefined) [LUMEFANTRINE] | 8

What follows are compounds tested on Plasmodium falciparum (assay: Antimalarial activity against Plasmodium falciparum 106/1 assessed as incorporation of [3H]hypoxanthine after 48 hrs by scintillation counter).
Format: functional, organism-based

Row | SMILES | IC50 [nM]
15 | O=C1C(O)=C([C@H]2CC[C@H](c3ccc(Cl)cc3)CC2)C(=O)c2ccccc21 [ATOVAQUONE] | 2.4
16 | CCCCN(CCCC)CC(O)c1cc(Cl)cc2c1-c1ccc(Cl)cc1/C2=C/c1ccc(Cl)cc1 (centres undefined) [LUMEFANTRINE] | 8

What follows are compounds tested on Plasmodium falciparum (assay: Antimalarial activity against Plasmodium falciparum IMT Bres assessed as incorporation of [3H]hypoxanthine after 48 hrs by scintillation counter).
Format: functional, organism-based

Row | SMILES | IC50 [nM]
17 | O=C1C(O)=C([C@H]2CC[C@H](c3ccc(Cl)cc3)CC2)C(=O)c2ccccc21 [ATOVAQUONE] | 2.4
18 | CCCCN(CCCC)CC(O)c1cc(Cl)cc2c1-c1ccc(Cl)cc1/C2=C/c1ccc(Cl)cc1 (centres undefined) [LUMEFANTRINE] | 8

Each compound was assayed on Plasmodium falciparum (assay: Antimalarial activity against Plasmodium falciparum IMT Guy assessed as incorporation of [3H]hypoxanthine after 48 hrs by scintillation counter).
Format: functional, organism-based

Row | SMILES | IC50 [nM]
19 | O=C1C(O)=C([C@H]2CC[C@H](c3ccc(Cl)cc3)CC2)C(=O)c2ccccc21 [ATOVAQUONE] | 2.4
20 | CCCCN(CCCC)CC(O)c1cc(Cl)cc2c1-c1ccc(Cl)cc1/C2=C/c1ccc(Cl)cc1 (centres undefined) [LUMEFANTRINE] | 8

The compounds below were run on Plasmodium falciparum (assay: Antimalarial activity against Plasmodium falciparum IMT A4 assessed as incorporation of [3H]hypoxanthine after 48 hrs by scintillation counter).
Format: functional, organism-based

Row | SMILES | IC50 [nM]
21 | O=C1C(O)=C([C@H]2CC[C@H](c3ccc(Cl)cc3)CC2)C(=O)c2ccccc21 [ATOVAQUONE] | 2.4
22 | CCCCN(CCCC)CC(O)c1cc(Cl)cc2c1-c1ccc(Cl)cc1/C2=C/c1ccc(Cl)cc1 (centres undefined) [LUMEFANTRINE] | 8

These compounds were tested on Plasmodium falciparum (assay: Antimalarial activity against Plasmodium falciparum IMT 31 assessed as incorporation of [3H]hypoxanthine after 48 hrs by scintillation counter).
Format: functional, organism-based

Row | SMILES | IC50 [nM]
23 | O=C1C(O)=C([C@H]2CC[C@H](c3ccc(Cl)cc3)CC2)C(=O)c2ccccc21 [ATOVAQUONE] | 2.4
24 | CCCCN(CCCC)CC(O)c1cc(Cl)cc2c1-c1ccc(Cl)cc1/C2=C/c1ccc(Cl)cc1 (centres undefined) [LUMEFANTRINE] | 8

What follows are compounds tested on Plasmodium falciparum (assay: Antimalarial activity against Plasmodium falciparum IMT 8425 assessed as incorporation of [3H]hypoxanthine after 48 hrs by scintillation counter).
Format: functional, organism-based

Row | SMILES | IC50 [nM]
25 | O=C1C(O)=C([C@H]2CC[C@H](c3ccc(Cl)cc3)CC2)C(=O)c2ccccc21 [ATOVAQUONE] | 2.4
26 | CCCCN(CCCC)CC(O)c1cc(Cl)cc2c1-c1ccc(Cl)cc1/C2=C/c1ccc(Cl)cc1 (centres undefined) [LUMEFANTRINE] | 8

What follows are compounds tested on Plasmodium falciparum (assay: Antimalarial activity against Plasmodium falciparum IMT 9881 assessed as incorporation of [3H]hypoxanthine after 48 hrs by scintillation counter).
Format: functional, organism-based

Row | SMILES | IC50 [nM]
27 | O=C1C(O)=C([C@H]2CC[C@H](c3ccc(Cl)cc3)CC2)C(=O)c2ccccc21 [ATOVAQUONE] | 2.4
28 | CCCCN(CCCC)CC(O)c1cc(Cl)cc2c1-c1ccc(Cl)cc1/C2=C/c1ccc(Cl)cc1 (centres undefined) [LUMEFANTRINE] | 8

Each compound was assayed on Plasmodium falciparum (assay: Antimalarial activity against Plasmodium falciparum IMT 10336 assessed as incorporation of [3H]hypoxanthine after 48 hrs by scintillation counter).
Format: functional, organism-based

Row | SMILES | IC50 [nM]
29 | O=C1C(O)=C([C@H]2CC[C@H](c3ccc(Cl)cc3)CC2)C(=O)c2ccccc21 [ATOVAQUONE] | 2.4
30 | CCCCN(CCCC)CC(O)c1cc(Cl)cc2c1-c1ccc(Cl)cc1/C2=C/c1ccc(Cl)cc1 (centres undefined) [LUMEFANTRINE] | 8

Each compound was assayed on Plasmodium falciparum (assay: Antimalarial activity against Plasmodium falciparum IMT 10500 assessed as incorporation of [3H]hypoxanthine after 48 hrs by scintillation counter).
Format: functional, organism-based

Row | SMILES | IC50 [nM]
31 | O=C1C(O)=C([C@H]2CC[C@H](c3ccc(Cl)cc3)CC2)C(=O)c2ccccc21 [ATOVAQUONE] | 2.4
32 | CCCCN(CCCC)CC(O)c1cc(Cl)cc2c1-c1ccc(Cl)cc1/C2=C/c1ccc(Cl)cc1 (centres undefined) [LUMEFANTRINE] | 8

What follows are compounds tested on Plasmodium falciparum (assay: Antimalarial activity against Plasmodium falciparum IMT 16332 assessed as incorporation of [3H]hypoxanthine after 48 hrs by scintillation counter).
Format: functional, organism-based

Row | SMILES | IC50 [nM]
33 | O=C1C(O)=C([C@H]2CC[C@H](c3ccc(Cl)cc3)CC2)C(=O)c2ccccc21 [ATOVAQUONE] | 2.4
34 | CCCCN(CCCC)CC(O)c1cc(Cl)cc2c1-c1ccc(Cl)cc1/C2=C/c1ccc(Cl)cc1 (centres undefined) [LUMEFANTRINE] | 8

Each compound was assayed on Plasmodium falciparum (assay: Antimalarial activity against Plasmodium falciparum IMT K14 assessed as incorporation of [3H]hypoxanthine after 48 hrs by scintillation counter).
Format: functional, organism-based

Row | SMILES | IC50 [nM]
35 | O=C1C(O)=C([C@H]2CC[C@H](c3ccc(Cl)cc3)CC2)C(=O)c2ccccc21 [ATOVAQUONE] | 2.4
36 | CCCCN(CCCC)CC(O)c1cc(Cl)cc2c1-c1ccc(Cl)cc1/C2=C/c1ccc(Cl)cc1 (centres undefined) [LUMEFANTRINE] | 8

These compounds were tested on Plasmodium falciparum (assay: Antimalarial activity against Plasmodium falciparum IMT K2 assessed as incorporation of [3H]hypoxanthine after 48 hrs by scintillation counter).
Format: functional, organism-based

Row | SMILES | IC50 [nM]
37 | O=C1C(O)=C([C@H]2CC[C@H](c3ccc(Cl)cc3)CC2)C(=O)c2ccccc21 [ATOVAQUONE] | 2.4
38 | CCCCN(CCCC)CC(O)c1cc(Cl)cc2c1-c1ccc(Cl)cc1/C2=C/c1ccc(Cl)cc1 (centres undefined) [LUMEFANTRINE] | 8

These compounds were tested on Plasmodium falciparum (assay: Antimalarial activity against Plasmodium falciparum IMT K4 assessed as incorporation of [3H]hypoxanthine after 48 hrs by scintillation counter).
Format: functional, organism-based

Row | SMILES | IC50 [nM]
39 | O=C1C(O)=C([C@H]2CC[C@H](c3ccc(Cl)cc3)CC2)C(=O)c2ccccc21 [ATOVAQUONE] | 2.4
40 | CCCCN(CCCC)CC(O)c1cc(Cl)cc2c1-c1ccc(Cl)cc1/C2=C/c1ccc(Cl)cc1 (centres undefined) [LUMEFANTRINE] | 8

What follows are compounds tested on Plasmodium falciparum (assay: Antimalarial activity against Plasmodium falciparum IMT L1 assessed as incorporation of [3H]hypoxanthine after 48 hrs by scintillation counter).
Format: functional, organism-based

Row | SMILES | IC50 [nM]
41 | O=C1C(O)=C([C@H]2CC[C@H](c3ccc(Cl)cc3)CC2)C(=O)c2ccccc21 [ATOVAQUONE] | 2.4
42 | CCCCN(CCCC)CC(O)c1cc(Cl)cc2c1-c1ccc(Cl)cc1/C2=C/c1ccc(Cl)cc1 (centres undefined) [LUMEFANTRINE] | 8

The compounds below were run on Plasmodium falciparum (assay: Antimalarial activity against Plasmodium falciparum IMT Vol assessed as incorporation of [3H]hypoxanthine after 48 hrs by scintillation counter).
Format: functional, organism-based

Row | SMILES | IC50 [nM]
43 | O=C1C(O)=C([C@H]2CC[C@H](c3ccc(Cl)cc3)CC2)C(=O)c2ccccc21 [ATOVAQUONE] | 2.4
44 | CCCCN(CCCC)CC(O)c1cc(Cl)cc2c1-c1ccc(Cl)cc1/C2=C/c1ccc(Cl)cc1 (centres undefined) [LUMEFANTRINE] | 8
